{"source": "patent US20180168160A1", "about": "“MICROBICIDAL COMPOSITION” (Rohm and Haas Company, priority 2015, published 2018)", "key": {"[1]": {"test_system": "consortium of selected bacterial species, Escherichia coli (ATCC #25922), Pseudomonas aeruginosa (ATCC #9027, Staphylococcus aureus (ATCC #6538) and Klebsiella …)", "assay": "Synergy test, high resolution MIC microtiter plate assay against a bacterial consortium", "assay_type": "cell-based", "conditions": "M9GY medium, 35° C., 24 hrs, visual turbidity, active ingredient basis", "from_the_text": "(§1) One measure of synergism is the industrially accepted method described by Kull, F. C.; Eisman, P. C.; Sylwestrowicz, H. D. and Mayer, R. L., in Applied Microbiology 9:538-541 (1961), using the ratio determined by the formula: Qa/QA+Qb/QB=Synergy Index (“SI”) wherein: QA=concentration of compound A (first component) in ppm, acting alone, which produced an end point (MIC of Compound A). QA=concentration of compound A in ppm, in the mixture, which produced an end point. QB=concentration of compound B (second component) in ppm, acting alone, which produced an end point (MIC of Compound B). Qb=concentration of compound B in ppm, in the mixture, which produced an end point.\n(§2) When the sum of Qa/QA and Qb/QB is greater than one, antagonism is indicated. […] The lower the SI, the greater the synergy shown by that particular mixture. The minimum inhibitory concentration (MIC) of a microbicide is the lowest concentration tested under a specific set of conditions that prevents the growth of added microorganisms.\n(§3) Synergy tests were conducted using standard microtiter plate assays with media designed for optimal growth of the test microorganism. Minimal salt medium supplemented with 0.2% glucose and 0.1% yeast extract (M9GY medium) was used for testing bacteria. In this method, a wide range of combinations of microbicides was tested by conducting high resolution MIC assays in the presence of various concentrations of DMDMH and Dazomet or THNM and Dazomet. High resolution MICs were determined by adding varying amounts of microbicide to one column of a microtiter plate and doing subsequent […] dilutions using an automated liquid handling system to obtain a series of endpoints ranging from 2 ppm to 1,000 ppm active ingredient.\n(§4) The synergy of the combinations of the present invention was determined against a consortium of selected bacterial species, Escherichia coli (ATCC #25922), Pseudomonas aeruginosa (ATCC #9027, Staphylococcus aureus (ATCC #6538) and Klebsiella pneumoniae (ATCC #13883). The consortium was prepared using approximately 1×10^6 CFU per mL of each species. These microorganisms are representative of natural contaminants in many industrial applications. The plates were visually evaluated for microbial growth (turbidity) to determine the MIC after selected incubation times at 35° C. after 24 hrs.\n(§5) In each test, Second Component (B) was Dazomet and the First Component (A) was DMDMH."}, "[2]": {"assay": "Synergy test, high resolution MIC microtiter plate assay against a bacterial consortium", "assay_type": "cell-based", "conditions": "M9GY medium, 35° C., 24 hrs, visual turbidity, active ingredient basis", "from_the_text": "as §1, §2, §3, §4, §5"}}, "note": "Read-outs that look alike come from different tables or passages of the source."}
{"smiles": "CC1(C)C(=O)N(CO)C(=O)N1CO", "note": "[DMDMH, dimethylol-dimethylhydantoin]", "values": [{"measurement": "MIC of DMDMH alone (QA)", "setting": "[1]; Table 1", "value": 200, "unit": "µg/mL"}]}
{"smiles": "CN1CSC(=S)N(C)C1", "note": "[Dazomet, 3,5-dimethyl-1,3,5-thiadiazinane-2-thione]", "values": [{"measurement": "MIC of Dazomet alone (QB)", "setting": "[1]; Table 2", "value": 100, "unit": "µg/mL"}, {"measurement": "MIC", "setting": "[2]; Table 1, read-out: MIC of Dazomet alone (QB)", "value": 100, "unit": "µg/mL"}]}
{"smiles": "O=[N+]([O-])C(CO)(CO)CO", "note": "[THNM, tris(hydroxymethyl)nitromethane]", "values": [{"measurement": "MIC", "setting": "[2]; Table 2, read-out: MIC of THNM alone (QA)", "value": 400, "unit": "µg/mL"}]}
